Consider ten molecules from patent US10947196B2, “Beta adrenergic agonist and methods of using the same” (CURASEN THERAPEUTICS, INC., priority 2019, dated 2021).

Like-named read-outs stand apart in the source and are kept apart here.

What all share (type): cell-based
The target in test [1] is β1-adrenergic receptor (Homo sapiens (Human), UniProt P08588). Kind of test: cAMP Gs dynamic HTRF assay, β1 expressing CHO cells. The conditions noted are these: B1-AR. Summed up: (§1)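 Intracellular cAMP quantified by Eu-donor/d2-acceptor HTRF after 30 min compound exposure at 37° C in stimulation buffer with IBMX. Concentrations ran 10 μM top, 5-fold steps, 10 points. Cell lines: 1321N1 astrocytoma and CHO expressing β1 or β2; EC50 via four-parameter fit, relative efficacy against isoproterenol.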

Test [2] deals with β2 adrenergic receptor (Homo sapiens (Human), UniProt P07550). Kind of test: cAMP Gs dynamic HTRF assay, β2 expressing CHO cells. The conditions noted are these: B2-AR. An outline of the steps: as §1
A general note: In TR-FRET formats the signal depends on donor and acceptor labels being close together.

Test [3] deals with β2 adrenergic receptors in human astrocytoma cells (1321N1) (Homo sapiens (Human), UniProt P07550). In words: cAMP HTRF assay in human astrocytoma cells (1321N1). To be noted: Endogenous receptor, 1321N1 cells. An outline of the steps: as §1
Test [4] addresses B3-AR (Homo sapiens (Human), UniProt P13945). In words: cAMP potency assay, B3-AR expressing CHO-K1 cells.
The mark [5] stands for this setting: CHO-K1 (HitHunter), read-out: Average pEC50 [Receptor subtype: B1-AR, Cell type: CHO-K1 (HitHunter)] (converted).
Setting [6] is: CHO-K cells, read-out: Average EC50 [Receptor subtype: B1-AR, Cell type: CHO-K].
The mark [7] stands for this setting: CHO-K1 (HitHunter), read-out: Average pEC50 [Receptor subtype: B2-AR, Cell type: CHO-K1 (HitHunter)] (converted).
The mark [8] stands for this setting: CHO-K cells, read-out: Average EC50 [Receptor subtype: B2-AR, Cell type: CHO-K].
The mark [9] stands for this setting: read-out: Average EC50 [Receptor subtype: Endogenous, Cell type: 1321N1].
Setting [10] is: read-out: Average EC50 [Receptor subtype: B3-AR, Cell type: CHO-K1].
Setting [11] is: read-out: Average pEC50 [Receptor subtype: Endogenous, Cell type: 1321N1] (converted).
[12] abbreviates: read-out: Average pEC50 [Receptor subtype: B3-AR, Cell type: CHO-K1] (converted).

Sequence of B3-AR (P13945 whole entry, species assumed): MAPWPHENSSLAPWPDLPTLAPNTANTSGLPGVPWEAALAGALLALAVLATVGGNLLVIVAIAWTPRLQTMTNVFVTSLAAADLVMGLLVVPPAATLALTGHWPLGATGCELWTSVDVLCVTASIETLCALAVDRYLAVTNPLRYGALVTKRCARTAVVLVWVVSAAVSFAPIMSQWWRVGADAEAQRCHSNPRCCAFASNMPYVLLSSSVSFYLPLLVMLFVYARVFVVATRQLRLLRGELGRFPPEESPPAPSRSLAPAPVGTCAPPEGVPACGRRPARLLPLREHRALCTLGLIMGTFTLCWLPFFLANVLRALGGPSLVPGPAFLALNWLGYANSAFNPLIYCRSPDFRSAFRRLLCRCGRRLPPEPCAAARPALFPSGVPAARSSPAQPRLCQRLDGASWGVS
Sequence of β2 adrenergic receptors in human astrocytoma cells (1321N1) (P07550 whole entry): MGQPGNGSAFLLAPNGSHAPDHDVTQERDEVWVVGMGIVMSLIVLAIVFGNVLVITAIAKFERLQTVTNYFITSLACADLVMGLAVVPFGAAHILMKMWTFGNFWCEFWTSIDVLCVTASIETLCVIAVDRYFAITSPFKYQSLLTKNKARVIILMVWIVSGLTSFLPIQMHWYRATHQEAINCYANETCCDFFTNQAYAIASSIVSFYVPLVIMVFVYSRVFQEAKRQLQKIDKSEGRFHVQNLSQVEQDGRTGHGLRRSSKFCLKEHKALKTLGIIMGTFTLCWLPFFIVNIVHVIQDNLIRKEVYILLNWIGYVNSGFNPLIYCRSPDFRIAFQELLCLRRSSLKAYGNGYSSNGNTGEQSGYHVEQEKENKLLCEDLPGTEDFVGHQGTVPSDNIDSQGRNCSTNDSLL
Sequence of β2 adrenergic receptor (P07550 whole entry, species assumed): as the sequence (P07550 whole entry) above
Sequence of β1-adrenergic receptor (P08588 whole entry, species assumed): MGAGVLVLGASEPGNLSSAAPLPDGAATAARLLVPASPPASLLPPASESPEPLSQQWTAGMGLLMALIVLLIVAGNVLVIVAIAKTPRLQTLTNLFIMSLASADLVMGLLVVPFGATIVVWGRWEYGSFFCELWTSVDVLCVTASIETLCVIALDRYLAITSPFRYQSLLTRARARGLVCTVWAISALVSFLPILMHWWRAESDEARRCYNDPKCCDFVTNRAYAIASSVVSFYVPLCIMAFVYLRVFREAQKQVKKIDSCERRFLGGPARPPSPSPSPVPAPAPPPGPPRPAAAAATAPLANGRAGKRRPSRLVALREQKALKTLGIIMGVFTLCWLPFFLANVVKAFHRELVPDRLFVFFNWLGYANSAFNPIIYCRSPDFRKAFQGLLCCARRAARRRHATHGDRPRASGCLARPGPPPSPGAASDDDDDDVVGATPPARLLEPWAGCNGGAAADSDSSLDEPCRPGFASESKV

Consider `COc1ncccc1[C@@H](O)CNC(C)(C)C` [Compound 03-59], for which the EC50 in test [1] (setting [5]) was below 10 nM; in test [1] (setting [6]), below 10 nM; in test [2] (setting [7]) it was below 10 nM; in test [2] (setting [8]), below 10 nM; in test [3] (setting [9]) it was below 10 nM; in test [4] (setting [10]), 100 to 1000 nM. Further, in test [3], the “Average pEC50 [Receptor subtype: Endogenous; Cell type: 1321N1]” value is on record as “A (A > 8)”. In addition, in test [4], the “Average pEC50 [Receptor subtype: B3-AR; Cell type: CHO-K1]” value is listed as “C (C = <7-6)”.
For the molecule `CC(C)Oc1cccc([C@@H](O)CNC(C)(C)C)n1` [Compound 03-179], in test [1] (CHO-K1 (HitHunter)), the “Average pEC50 [Receptor subtype: B1-AR; Cell type: CHO-K1 (HitHunter)]” value is “C (C = <7-6)”. Besides, the EC50 in test [1] (setting [6]) is 100 to 1000 nM; in test [2] (setting [7]), below 10 nM; in test [2] (setting [8]), below 10 nM; in test [3] (setting [11]) it was below 10 nM; in test [4] (setting [12]) it was 100 to 1000 nM.
On to `Cc1ccc([C@@H](O)CNC(C)(C)C)nc1` [Compound 03-127], for which the EC50 in test [1] (setting [5]) is 10 to 100 nM; in test [1] (setting [6]) it was 10 to 100 nM; in test [2] (setting [7]), 10 to 100 nM; in test [2] (setting [8]), 10 to 100 nM; in test [3] (setting [11]), 10 to 100 nM; in test [4] (setting [12]) it was above 1000 nM.
Regarding `[2H]C([2H])([2H])C(NCC(O)c1cccc(C(F)(F)F)n1)(C([2H])([2H])[2H])C([2H])([2H])[2H]` (stereo not drawn) [Compound 03-49], the EC50 is above 1000 nM in test [1] (setting [5]); above 1000 nM in test [1] (setting [6]); 100 to 1000 nM in test [2] (setting [8]); above 1000 nM in test [3] (setting [9]); above 1000 nM in test [4] (setting [10]).
As for `O[C@@H](CNC1Cc2ccccc2C1)c1cccc(C(F)(F)F)n1` [Compound 03-21], the EC50 in test [1] (setting [5]) was 100 to 1000 nM; in test [1] (setting [6]) it was 100 to 1000 nM; in test [2] (setting [7]) it was 10 to 100 nM; in test [2] (setting [8]), 10 to 100 nM; in test [3] (setting [11]), 10 to 100 nM; in test [4] (setting [12]), above 1000 nM.
As for `CC1(NC[C@H](O)c2cccc(C(F)(F)F)n2)CC1` [Compound 03-14], the EC50 in test [1] (setting [5]) was 10 to 100 nM; in test [1] (setting [6]), 10 to 100 nM; in test [2] (setting [7]) it was 10 to 100 nM; in test [2] (setting [8]), 10 to 100 nM; in test [3] (setting [11]), 100 to 1000 nM; in test [4] (setting [12]), above 1000 nM.
With `CC(C)c1cccc([C@@H](O)CNC(C)(C)C)n1` [Compound 03-175], the EC50 in test [1] (setting [5]) is 10 to 100 nM; in test [1] (setting [6]), 10 to 100 nM; in test [2] (setting [7]), below 10 nM; in test [2] (setting [8]), below 10 nM; in test [3] (setting [11]), below 10 nM; in test [4] (setting [12]), above 1000 nM.
With `CC(C)(C)NC[C@H](O)c1ccnc(C(F)(F)F)n1` [Compound 03-45], the EC50 was 10 to 100 nM in test [1] (setting [5]); 10 to 100 nM in test [1] (setting [6]); 100 to 1000 nM in test [2] (setting [7]); 100 to 1000 nM in test [2] (setting [8]); below 10 nM in test [3] (setting [9]); below 10 nM in test [4] (setting [10]).
Take `O[C@@H](CNC1CCC1)c1cccc(C(F)(F)F)n1` [Compound 03-33]: in test [1] (CHO-K1 (HitHunter)), the “Average pEC50 [Receptor subtype: B1-AR; Cell type: CHO-K1 (HitHunter)]” value was “A (A > 8)”. Besides, the EC50 in test [1] (setting [6]) is below 10 nM; in test [2] (setting [7]) it was below 10 nM; in test [2] (setting [8]), below 10 nM; in test [3] (setting [11]), 10 to 100 nM; in test [4] (setting [12]) it was above 1000 nM.
On to `CC(C)NC[C@H](O)c1cccc(C2CC2)n1` [Compound 03-10], for which the EC50 was 10 to 100 nM in test [1] (setting [5]); 10 to 100 nM in test [1] (setting [6]); below 10 nM in test [2] (setting [7]); below 10 nM in test [2] (setting [8]); 10 to 100 nM in test [3] (setting [9]); above 1000 nM in test [4] (setting [10]). In test [3], the “Average pEC50 [Receptor subtype: Endogenous; Cell type: 1321N1]” value is “B (B = 8-7)”. In test [4], the “Average pEC50 [Receptor subtype: B3-AR; Cell type: CHO-K1]” value is recorded as “D (D < 6)”.
